Data published in US8821908B2, “Mold-resistant construction materials” (Henkel AG & Co. KGaA, priority 2004, dated 2014).

Columns and labels:
Assay type in all cases: cell-based
[1] = tested on: test fungi envisaged in DIN EN ISO 846 or Aspergillus niger (ATCC 6275) as sole test organism; test: Fungal resistance of cured silicone joint sealant films, test along the lines of DIN EN ISO846 after QUV aging (infestation index); set-up: key to Infestation index: sum of weekly growth ratings (0 = no growth to 5 = fully overgrown)
Description: Cured silicone films (approximately 80×60×5 mm) are sprayed alternately for 15 minutes each with a spray solution (2% strength aqueous Texapon NSO solution containing 0.5% Dehydran 1513 defoamer), then irradiated with UV light for 15 minutes, in a QUV accelerated weathering instrument (e.g. QUV-spray model). Per week, the test specimens are exposed to 198 spraying units and 198 UV units. After 4 (792 shower cycles), 8 (1584 shower cycles), and 12 weeks (2376 shower cycles), test specimens are taken for microbiological examination. An unweathered sample is likewise investigated microbiologically.
The fungal resistance of cured joint-sealing compounds is assessed in a method based on DIN EN ISO846: “Determination of the action of microorganisms on plastics (ISO 846:1997 German version EN ISO 846: 1997); (amended).
Test specimens of cured joint-sealing compounds are applied planarly to an agar surface. A fungal suspension is caused to act on the test specimens and the surrounding agar surface. After incubation, an assessment is made of the growth on and around the test specimens.
Test conditions: The following important amendments and additions to the DIN EN ISO 846 are carried out: • (1) The test specimens are tested to DIN EN ISO 846 without pretreatment. Additionally, test specimens are also assessed in the test after pretreatment. This pretreatment (leaching) may take place, for example, by incubation for a number of weeks in a flow-traversed immersion bath with water or by accommodating suitable test specimens in a QUV; • (2) The fungal spore suspension is incubated under relatively harsh, realistic conditions with increased ambient air humidity (approximately 85% relative humidity) in a humid chamber; • (3) The test specimens are incubated on ‘complete nutrient medium’ (cf. DIN EN ISO 846 4.2.1.2 method B), but with ‘wort agar’; • (4) As test organisms use is made either of the test fungi envisaged in DIN EN ISO 846: • Aspergillus niger ATCC 6275 • Penicillium funiculosum ATCC 36839 • Paecilomyces variotii ATCC 18502 • Gliocladium virens ATCC 9645 • Chaetomium globosum ATCC 6205 • or, alternatively, the strain Aspergillus niger (ATCC 6275) as sole test organism.
Evaluation of the growth on the test elements: • 0=no growth visible under microscope viewing • 1=no growth visible with naked eye, but growth clearly visible under the microscope • 2=growth visible with naked eye, up to 25% of the sample surface overgrown • 3=growth visible with naked eye, up to 50% of the sample surface overgrown • 4=considerable growth, over 50% of the sample surface overgrown • 5=severe growth, entire sample surface overgrown
All in all, the specimens are incubated for 18 weeks and inoculated again after 4 and 8 weeks in each case. The individual evaluations are added over this period and reported collectively as the infestation index.
A commercially customary silicone joint sealant (e.g., Dow Corning 3390) is admixed with the actives described and stirred with a stirrer until homogeneity is achieved. Thereafter, films of the sealant are produced and tested as described above.

[2] = tested on: Aspergillus niger (DSM1988); test: Sporulation inhibition on wort agar plates
Description: The surface of wort agar plates was contaminated with 100 μl in each case of a microbial suspension (10^3 CFU/ml) of Aspergillus niger (DSM1988). Added beforehand to the agar plates were different amounts of active (solutions in ethanol, for final concentrations see table). The plates were incubated at 25° C. for 3 days. Spore formation was assessed visually and the sporulation rate was ascertained in [%]. A growth inhibition or microbicidal effect only occurred for a concentration of 0.05% by weight OPP.

Candida albicans = test: Hyphal formation and cell growth of Candida albicans
Description: Fucoidin, also known under the name fucosidan or fucoidan, is a polysaccharide from brown algae (Fucus vesiculosa, bladder wrack) which consists principally of sulfated L-fucose in 1,2-α-glycosidic linkage.

[3] = Amount of active added 500 ppm in silicone joint sealant, evaluations (0-5) added over 18 weeks
[4] = Amount of active added 1000 ppm in silicone joint sealant, evaluations added over 18 weeks

Molecule: CCCCCCCCn1sc(Cl)c(Cl)c1=O [DCOIT]
- Infestation index [1, 3]: 77
- Infestation index [1, 4]: 81
- Infestation index ([1]; Amount of active added 2000 ppm in silicone joint sealant, evaluations added over 18 weeks): 78

Molecule: CC(C)(C)C(O)(CCc1ccc(Cl)cc1)Cn1cncn1 (stereo not shown) [Tebuconazole, a-(2-(4-chlorophenyl)ethyl)-a-(1,1-dimethylethyl)-1H-1,2,4-triazole-1-ethanol]
- Infestation index [1, 3]: 60
- Infestation index [1, 4]: 57
- Infestation index ([1]; Amount of active added 2500 ppm in silicone joint sealant, evaluations added over 18 weeks): 37
- Infestation index ([1]; Amount of active added 5000 ppm in silicone joint sealant, evaluations added over 18 weeks): 20
- Infestation index ([1]; Amount of active added 10000 ppm in silicone joint sealant, evaluations added over 18 weeks): 12
- dependence of mold prevention on concentration ([1]; in sealants, not observed with fungicides typically used at present): virtually linear dependence with increasing concentration

Molecule: Oc1ccccc1-c1ccccc1 [ortho-phenylphenol]
- Sporulation [%] ([2]; Concentration of OPP 0.00001 %, 25° C., 3 days, assessed visually): 95%
- Sporulation [%] ([2]; Concentration of OPP 0.00005 %, 25° C., 3 days): 95%
- Sporulation [%] ([2]; Concentration of OPP 0.0001 %, 25° C., 3 days): 95%
- Sporulation [%] ([2]; Concentration of OPP 0.0005 %, 25° C., 3 days): 50%
- Sporulation [%] ([2]; Concentration of OPP 0.001 %, 25° C., 3 days): 25%
- Sporulation [%] ([2]; Concentration of OPP 0.005 %, 25° C., 3 days): 0%
- concentration of complete suppression of spore formation relative to growth-inhibiting concentration ([2]; without any growth inhibition activity occurring): fifty times lower
- concentration at which a growth inhibition or microbicidal effect occurred ([2]; wort agar, 25° C., 3 days): 0.05 % by weight
- use concentration at which spore formation was suppressed completely ([2]; wort agar, 25° C., 3 days): 0.001 % by weight

Molecule: Fucoidin
- cell growth (Candida albicans): unaffected
- hyphal formation (Candida albicans): significantly reduced

Molecule: ortho-phenylphenol-silicic ester
- Sporulation [%] ([2]; Concentration of OPP-silicic ester 0.00001 %, 25° C., 3 days): 95%
- Sporulation [%] ([2]; Concentration of OPP-silicic ester 0.00005 %, 25° C., 3 days): 95%
- Sporulation [%] ([2]; Concentration of OPP-silicic ester 0.0001 %, 25° C., 3 days): 95%
- Sporulation [%] ([2]; Concentration of OPP-silicic ester 0.0005 %, 25° C., 3 days): 50%
- Sporulation [%] ([2]; Concentration of OPP-silicic ester 0.001 %, 25° C., 3 days): 25%
- Sporulation [%] ([2]; Concentration of OPP-silicic ester 0.005 %, 25° C., 3 days): 0%
- Sporulation [%] ([2]; Concentration of OPP-silicic ester 0.01 %, 25° C., 3 days): 0%
- use concentration at which spore formation was suppressed completely ([2]; wort agar, 25° C., 3 days): 0.005 % by weight
